# Reference: ChEMBL document CHEMBL5360600, “Optimization of 1,2,4-Triazole-Based p97 Inhibitors for the Treatment of Cancer” (ACS Med Chem Lett, 2023)
# Activity calls are given as the source filed them. The rule behind the calls is not given here.
# Assays:
# [1] = target: T1, Transitional endoplasmic reticulum ATPase (Homo sapiens, UniProt P55072); test: Inhibition of p97 in human HeLa cells expressing UbG76V-GFP/ODD-Luc assessed as accumulation of Ub-GFP incubated for 6 hrs by confocal microscopic analysis; format: cell-based
# Target sequence in this assay (P55072 whole entry): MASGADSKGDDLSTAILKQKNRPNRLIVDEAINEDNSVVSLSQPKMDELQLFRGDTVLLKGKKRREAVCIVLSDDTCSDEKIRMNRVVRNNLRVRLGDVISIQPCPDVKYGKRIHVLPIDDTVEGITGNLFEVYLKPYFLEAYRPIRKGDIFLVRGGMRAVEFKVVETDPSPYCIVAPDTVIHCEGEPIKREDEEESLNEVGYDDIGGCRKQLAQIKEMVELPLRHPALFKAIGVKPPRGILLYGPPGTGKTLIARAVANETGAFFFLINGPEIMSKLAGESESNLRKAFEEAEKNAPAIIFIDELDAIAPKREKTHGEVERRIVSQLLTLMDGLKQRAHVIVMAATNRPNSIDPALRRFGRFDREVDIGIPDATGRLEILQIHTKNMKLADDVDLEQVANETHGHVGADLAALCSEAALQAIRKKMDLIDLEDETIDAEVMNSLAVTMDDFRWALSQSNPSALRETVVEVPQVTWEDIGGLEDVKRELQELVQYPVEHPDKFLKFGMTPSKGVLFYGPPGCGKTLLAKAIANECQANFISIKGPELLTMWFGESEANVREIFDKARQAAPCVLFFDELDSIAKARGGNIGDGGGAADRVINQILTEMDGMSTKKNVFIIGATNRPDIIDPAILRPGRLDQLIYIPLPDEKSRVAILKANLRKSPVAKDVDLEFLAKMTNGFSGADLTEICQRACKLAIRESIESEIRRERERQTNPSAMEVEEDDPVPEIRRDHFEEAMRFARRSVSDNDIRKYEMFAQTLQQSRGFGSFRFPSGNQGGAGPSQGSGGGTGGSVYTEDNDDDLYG
# [2] = Solubility of compound in PBS incubated for 30 minutes by clear-bottomed UV analysis; format: physicochemical
# [3] = Metabolic stability in mouse liver microsome assessed as half life at 1 uM incubated upto 45 mins in presence of NADPH-regenerating system by LC-MS analysis; format: ADME; conditions: liver microsomes
# [4] = target: T1, Transitional endoplasmic reticulum ATPase; test: Inhibition of p97 (unknown origin) ATPase activity by Biomol Green Reagent based microplate reader analysis
# Target sequence in this assay (P55072 whole entry): as above
# [5] = Solubility of compound at pH 7.4 in PBS by UV/visible spectrophotometer analysis; format: physicochemical
# [6] = tested on: HCT-116; test: Cytotoxicity against human HCT-116 cells assessed as reduction in cell viability incubated for 48 hrs by celltiter glo-luminescent assay; format: functional, cell-based; conditions: HCT-116, 48 h
# [7] = target: T1, Transitional endoplasmic reticulum ATPase; test: Inhibition of p97 in human HCT-116 cells assessed as increase in caspase-3 level at 1 uM incubated for 24 hrs by quantitative sandwich immunoassay method relative to control; format: cell-based
# Target sequence in this assay (P55072 2-806 limits assumed): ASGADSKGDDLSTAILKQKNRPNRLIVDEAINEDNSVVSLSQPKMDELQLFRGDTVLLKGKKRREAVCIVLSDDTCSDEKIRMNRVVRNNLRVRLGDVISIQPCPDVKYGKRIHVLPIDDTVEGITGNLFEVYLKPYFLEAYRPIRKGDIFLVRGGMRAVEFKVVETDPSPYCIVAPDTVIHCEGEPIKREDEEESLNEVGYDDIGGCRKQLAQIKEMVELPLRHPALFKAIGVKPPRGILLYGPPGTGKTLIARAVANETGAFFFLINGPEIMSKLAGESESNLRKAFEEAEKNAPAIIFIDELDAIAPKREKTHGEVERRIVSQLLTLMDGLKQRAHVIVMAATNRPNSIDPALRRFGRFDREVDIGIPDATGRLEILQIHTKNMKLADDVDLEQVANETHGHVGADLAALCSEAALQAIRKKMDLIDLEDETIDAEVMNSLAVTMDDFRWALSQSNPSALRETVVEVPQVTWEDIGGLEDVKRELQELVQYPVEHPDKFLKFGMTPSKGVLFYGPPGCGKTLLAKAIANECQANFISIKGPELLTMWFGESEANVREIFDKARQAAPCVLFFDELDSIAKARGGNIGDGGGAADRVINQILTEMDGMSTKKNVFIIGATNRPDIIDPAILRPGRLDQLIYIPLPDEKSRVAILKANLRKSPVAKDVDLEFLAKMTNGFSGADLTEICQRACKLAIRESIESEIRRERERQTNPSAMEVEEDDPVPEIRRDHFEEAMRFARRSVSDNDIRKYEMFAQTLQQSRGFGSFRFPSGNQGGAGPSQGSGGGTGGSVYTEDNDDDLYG
# [8] = Cmax in CD-1 mouse at 50 mg/kg, ip incubated upto 24 hrs by LC-MS/MS analysis; format: ADME, organism-based; design: time < 24 hrs, dose 50 mg/kg, route ip; conditions: in vivo
# [9] = Cmax in CD-1 mouse at 50 mg/kg, po incubated upto 24 hrs by LC-MS/MS analysis; format: ADME, organism-based; design: dose 50 mg/kg, time < 24 hrs, route po; conditions: in vivo
# [10] = AUClast in CD-1 mouse at 5 mg/kg, iv incubated upto 24 hrs by LC-MS/MS analysis; format: ADME, organism-based; design: dose 5 mg/kg, time < 24 hrs, route iv; conditions: in vivo
# [11] = AUClast in CD-1 mouse at 50 mg/kg, ip incubated upto 24 hrs by LC-MS/MS analysis; format: ADME, organism-based; design: time < 24 hrs, dose 50 mg/kg, route ip; conditions: in vivo
# [12] = AUClast in CD-1 mouse at 50 mg/kg, po incubated upto 24 hrs by LC-MS/MS analysis; format: ADME, organism-based; design: time < 24 hrs, dose 50 mg/kg, route po; conditions: in vivo
# [13] = Volume of distribution at steady state in CD-1 mouse at 5 mg/kg, iv incubated upto 24 hrs by LC-MS/MS analysis; format: ADME, organism-based; conditions: in vivo, read-out: Vdss
# [14] = Half life in CD-1 mouse at 5 mg/kg, iv incubated upto 24 hrs by LC-MS/MS analysis; format: ADME, organism-based; conditions: in vivo
# [15] = Half life in CD-1 mouse at 50 mg/kg, ip incubated upto 24 hrs by LC-MS/MS analysis; format: ADME, organism-based; conditions: in vivo
# [16] = Half life in CD-1 mouse at 50 mg/kg, po incubated upto 24 hrs by LC-MS/MS analysis; format: ADME, organism-based; conditions: in vivo
# [17] = Clearance in CD-1 mouse at 5 mg/kg, iv incubated upto 24 hrs by LC-MS/MS analysis; format: ADME, organism-based; conditions: in vivo
# [18] = Oral bioavailability in CD-1 mouse at 50 mg/kg incubated upto 24 hrs by LC-MS/MS analysis; format: ADME, organism-based; conditions: in vivo
# [19] = target: T1, Transitional endoplasmic reticulum ATPase; test: Inhibition of p97 in human HCT-116 cells assessed as increase in caspase-3 level at 0.04 to 6 uM pretreated for 2 hrs followed by washout and measured after 6 to 24 hrs by quantitative sandwich immunoassay method; format: cell-based; conditions: dose 0.04-6 µM
# Target sequence in this assay (P55072 2-806 limits assumed): as above
# [20] = target: T1, Transitional endoplasmic reticulum ATPase; test: Inhibition of p97 in human HCT-116 cells assessed as increase in Ub-K48 level at 100 nM incubated for 6 hrs by quantitative sandwich immunoassay method relative to control; format: cell-based
# Target sequence in this assay (P55072 2-806 limits assumed): as above
EC50 [1] [nM],solubility at 0.5 h [2] [µM],"half-life at […], 1 µM [3] [min]",IC50 [4] [nM],SMILES,IC50 [6] [nM],other results
> 40000,24,9,–,Cc1cc(OCc2nnc(SC3C=CCCC3)n2-c2cccnc2)ccc1C#CCNS(=O)(=O)c1ccc(F)cc1 (centres undefined),–,–
1900,–,–,32,CCC(=O)NCC#Cc1ccc(OCc2nnc(SC3C=CCCC3)n2-c2cccnc2)cc1C (centres undefined),–,–
> 40000,370,> 60,> 6000,Cc1cc(OCc2nnc(SC3CCNCC3)n2-c2cccnc2)ccc1-c1ccc(S(C)(=O)=O)cc1,–,–
11000,92,7,150,Cc1cc(OCc2nnc(SC3C=CCCC3)n2-c2cccnc2)ccc1C#CCNC(=O)OC(C)(C)C (centres undefined),–,–
> 40000,9,13,320,Cc1cc(OCc2nnc(SC3CCCC=C3F)n2-c2cccnc2)ccc1-c1ccc(S(C)(=O)=O)cc1 (centres undefined),–,–
47000,150,< 10,460,Cc1cc(OCc2nnc(SC3CCOCC3)n2-c2cccnc2)ccc1-c1ccc(S(C)(=O)=O)cc1,–,–
2700,–,8,–,Cc1cc(OCc2nnc(SC3C=CCCC3)n2-c2cccnc2)ccc1C#CCNC(C)C (centres undefined),–,–
2700,–,7,–,Cc1cc(OCc2nnc(SC3C=CCCC3)n2-c2cccnc2)ccc1C#CCNS(C)(=O)=O (centres undefined),–,–
2400,170,8,60,Cc1cc(OCc2nnc(SC3CCCCC3)n2-c2cccnc2)ccc1-c1ccc(S(C)(=O)=O)cc1,–,–
1300,39,1.2,40,Cc1cc(OCc2nnc(SC3C=CCCC3)n2-c2cccnc2)ccc1C#CCO (centres undefined),4700,solubility [5]: 39 µM
–,–,9,–,Cc1cc(OCc2nnc(SC3CCCC3)n2-c2cccnc2)ccc1-c1ccc(S(C)(=O)=O)cc1,–,–
–,29,6,–,[2H]C1([2H])C([2H])([2H])C([2H])([2H])C([2H])(Sc2nnc(COc3ccc(-c4ccc(S(C)(=O)=O)cc4)c(C)c3)n2-c2cccnc2)C1([2H])[2H],–,–
4500,53,24,–,Cc1cc(OCc2nnc(SC3C=CCCC3)n2-c2cccnc2)ccc1C#CCN (centres undefined),–,–
> 40000,260,13,2010,COCCSc1nnc(COc2ccc(-c3ccc(S(C)(=O)=O)cc3)c(C)c2)n1-c1cccnc1,–,–
> 40000,110,< 10,300,Cc1cc(OCc2nnc(SC3CCC(F)(F)CC3)n2-c2cccnc2)ccc1-c1ccc(S(C)(=O)=O)cc1,–,–
940,140,< 10,34,Cc1cc(OCc2nnc(SC3C=CCCC3)n2-c2cccnc2)ccc1-c1ccc(S(C)(=O)=O)cc1 (centres undefined),–,–

# Further lines, the compound ahead of its results:
SMILES,EC50 [1] [nM],solubility at 0.5 h [2] [µM],"half-life at […], 1 µM [3] [min]",IC50 [4] [nM],IC50 [6] [nM],other results
[2H]C1([2H])C([2H])([2H])C([2H])([2H])C([2H])(Sc2nnc(COc3cc(F)c(C#CCOC(=O)NC4CCN(C)CC4)cc3F)n2-c2cccnc2)C1([2H])[2H],640,–,8,9.7,1370,solubility [5]: 83 µM
Cc1cc(OCc2nnc(SC3C=CCCC3)n2-c2cccnc2)ccc1C#CCOC(=O)NCCN1CCN(C)CC1 (centres undefined),890,–,8,21,2800,–
Cc1cc(OCc2nnc(SC3C=CCCC3)n2-c2cccnc2)ccc1C#CCOC(=O)NC1CCN(C)CC1 (centres undefined),820,61,7,23,2100,solubility [5]: 61 µM
CN1CCC(NC(=O)OCC#Cc2cc(F)c(OCc3nnc(S[C@H]4C=CCCC4)n3-c3cccnc3)cc2F)CC1,–,–,5,–,340,solubility [5]: 74 µM; inhibition [7]: Active; Cmax [8]: 12700 ng/mL; Cmax [9]: 366 ng/mL; AUC(0-t) at 24 h [10]: 371 ng·h/mL; AUC(0-t) at 24 h [11]: 9290 ng·h/mL; AUC(0-t) at 24 h [12]: 601 ng·h/mL; Vd [13]: 5.9 L/kg; half-life [14]: 41.4 min; half-life [15]: 96 min; half-life [16]: 126 min; clearance [17]: 234 mL/min/kg; bioavailability [18]: 17%; inhibition [19]: Active
Cc1cc(OCc2nnc(SC3C=CCCC3)n2-c2cccnc2)ccc1C#CCNC1CCN(C)CC1 (centres undefined),1500,130,8,41,–,–
CN1CCC(NC(=O)OCC#Cc2ccc(OCc3nnc(SC4C=CCCC4)n3-c3cccnc3)c(F)c2F)CC1 (centres undefined),1300,–,8,–,3200,solubility [5]: 54 µM
CN1CCC(NC(=O)OCC#Cc2c(F)cc(OCc3nnc(SC4C=CCCC4)n3-c3cccnc3)cc2F)CC1 (centres undefined),360,–,–,11,730,inhibition [20]: 123%
CN1CCN(CCNC(=O)OCC#Cc2ccc(OCc3nnc(SC4C=CCCC4)n3-c3cccnc3)cc2F)CC1 (centres undefined),820,–,4,–,1350,solubility [5]: 60 µM
CN1CCC(NC(=O)OCC#Cc2cc(F)c(OCc3nnc(S[C@@H]4C=CCCC4)n3-c3cccnc3)cc2F)CC1,–,–,–,–,4740,–
CN1CCC(NC(=O)OCC#Cc2cc(F)c(OCc3nnc(SC4C=CCCC4)n3-c3cccnc3)cc2F)CC1 (centres undefined),–,–,3,–,850,solubility [5]: 71 µM; inhibition [20]: 133%
Cc1cc(OCc2nnc(SC3C=CCCC3)n2-c2cccnc2)ccc1C#CCOC(=O)N1CCN(C)CC1 (centres undefined),1800,–,< 10,29,2400,–
